Data on 19 molecules can be found in the supplement of paper PMC11424490.

For one assay, the system named is SW837. The assay can be described thus: combination cScore with sotorasib (Bliss gap around IC50) (%PoC); higher = stronger additive effect. The procedure, abridged: (§1)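 NCI-H2122, NCI-H358 and SW837 cells were plated in 384-well plates at 500 or 800 cells per well, treated with concentration matrices after 24 h, and grown for 72 h (SW837 for 144 h). Luminescence from CellTiter-Glo was expressed as percent of control relative to vehicle wells and fitted with four-parameter curves. The score is the mean Bliss-independence gap, expected minus measured viability, across a field around both monotherapy IC50 values, or across the top concentrations where no IC50 was reached.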

The subject of the next assay is NCI-H2122. Described as above. The procedure, abridged: as §1

Turning to `CC(=O)O[C@@]12CO[C@@H]1C[C@H](O)[C@@]1(C)C(=O)[C@H](O)C3=C(C)[C@@H](OC(=O)[C@H](O)[C@@H](NC(=O)OC(C)(C)C)c4ccccc4)C[C@@](O)([C@@H](OC(=O)c4ccccc4)[C@H]21)C3(C)C` [Docetaxel] + C=CC(=O)N1CCN(c2nc(=O)n(-c3c(C)ccnc3C(C)C)c3nc(-c4c(O)cccc4F)c(F)cc23)[C@@H](C)C1 [sotorasib], the “combination cScore with sotorasib” value was 3.98 with SW837 and 1.66 in the assay on NCI-H2122.
As to `COc1cccc2c1C(=O)c1c(O)c3c(c(O)c1C2=O)C[C@@](O)(C(=O)CO)C[C@@H]3O[C@H]1C[C@H](N)[C@H](O)[C@H](C)O1` [Doxorubicin] + C=CC(=O)N1CCN(c2nc(=O)n(-c3c(C)ccnc3C(C)C)c3nc(-c4c(O)cccc4F)c(F)cc23)[C@@H](C)C1 [sotorasib], the results for the “combination cScore with sotorasib” value in the assay on SW837 and in the assay with NCI-H2122 were 11 and 11.1, respectively.
Consider `CN(NC(=O)CC(=O)NN(C)C(=S)c1ccccc1)C(=S)c1ccccc1` [Elesclomol] + C=CC(=O)N1CCN(c2nc(=O)n(-c3c(C)ccnc3C(C)C)c3nc(-c4c(O)cccc4F)c(F)cc23)[C@@H](C)C1 [sotorasib], for which the “combination cScore with sotorasib” value in the assay with SW837 amounted to 13.4; with NCI-H2122 it was 13.6.
In the same order, the values of `CNC(=O)c1ccc(N2C(=S)N(c3ccc(C#N)c(C(F)(F)F)c3)C(=O)C2(C)C)cc1F` [Enzalutamide] + C=CC(=O)N1CCN(c2nc(=O)n(-c3c(C)ccnc3C(C)C)c3nc(-c4c(O)cccc4F)c(F)cc23)[C@@H](C)C1 [sotorasib] are 5.64 and 6.62.
The corresponding values for `COc1cc([C@@H]2c3cc4c(cc3[C@@H](O[C@@H]3O[C@@H]5CO[C@@H](C)O[C@H]5[C@H](O)[C@H]3O)[C@H]3COC(=O)[C@H]23)OCO4)cc(OC)c1O` [Etoposide] + C=CC(=O)N1CCN(c2nc(=O)n(-c3c(C)ccnc3C(C)C)c3nc(-c4c(O)cccc4F)c(F)cc23)[C@@H](C)C1 [sotorasib] are 4.54 and 14.1.
In the same order, the values of `CO[C@H]1C[C@@H]2CC[C@@H](C)[C@@](O)(O2)C(=O)C(=O)N2CCCC[C@H]2C(=O)O[C@H]([C@H](C)C[C@@H]2CC[C@@H](OCCO)[C@H](OC)C2)CC(=O)[C@H](C)/C=C(\C)[C@@H](O)[C@@H](OC)C(=O)[C@H](C)C[C@H](C)/C=C/C=C/C=C/1C` [Everolimus] + C=CC(=O)N1CCN(c2nc(=O)n(-c3c(C)ccnc3C(C)C)c3nc(-c4c(O)cccc4F)c(F)cc23)[C@@H](C)C1 [sotorasib] are -4.84 and 4.54.
With `CN1CC[C@H](c2c(O)cc(O)c3c(=O)cc(-c4ccccc4Cl)oc23)[C@H](O)C1` [Flavopiridol] + C=CC(=O)N1CCN(c2nc(=O)n(-c3c(C)ccnc3C(C)C)c3nc(-c4c(O)cccc4F)c(F)cc23)[C@@H](C)C1 [sotorasib], the results for the “combination cScore with sotorasib” value in the assay with SW837 and in the assay with NCI-H2122 were 1.46 and 6.54, respectively.
On to `Nc1nc(F)nc2c1ncn2[C@@H]1O[C@H](CO)[C@@H](O)[C@@H]1O` [Fludarabine] + C=CC(=O)N1CCN(c2nc(=O)n(-c3c(C)ccnc3C(C)C)c3nc(-c4c(O)cccc4F)c(F)cc23)[C@@H](C)C1 [sotorasib], for which the results for the “combination cScore with sotorasib” value in the assay with SW837 and in the assay with NCI-H2122 were -1.86 and 9.97, respectively.
In the same order, the values of `O=c1[nH]cc(F)c(=O)[nH]1` [Fluorouracil (5-FU)] + C=CC(=O)N1CCN(c2nc(=O)n(-c3c(C)ccnc3C(C)C)c3nc(-c4c(O)cccc4F)c(F)cc23)[C@@H](C)C1 [sotorasib] are 15.4 and 2.26.
The corresponding values for `C[C@]12CC[C@@H]3c4ccc(O)cc4C[C@@H](CCCCCCCCC[S+]([O-])CCCC(F)(F)C(F)(F)F)[C@H]3[C@@H]1CC[C@@H]2O` (stereo partly drawn) [Fulvestrant] + C=CC(=O)N1CCN(c2nc(=O)n(-c3c(C)ccnc3C(C)C)c3nc(-c4c(O)cccc4F)c(F)cc23)[C@@H](C)C1 [sotorasib] are 1.95 and 8.41.
The corresponding values for `CN(C)c1ccccc1CN1CCCN(Cc2ccccc2N(C)C)C1c1ccncc1` [GANT61] + C=CC(=O)N1CCN(c2nc(=O)n(-c3c(C)ccnc3C(C)C)c3nc(-c4c(O)cccc4F)c(F)cc23)[C@@H](C)C1 [sotorasib] are -1.32 and -3.17.
On to `N#CN=C(NCCCCCCOc1ccc(Cl)cc1)Nc1ccncc1` [GMX1778] + C=CC(=O)N1CCN(c2nc(=O)n(-c3c(C)ccnc3C(C)C)c3nc(-c4c(O)cccc4F)c(F)cc23)[C@@H](C)C1 [sotorasib], for which the “combination cScore with sotorasib” value in the assay on SW837 is 7.36; in the assay with NCI-H2122, -13.8.
In the same order, the values of `CCOC(=O)CCNc1cc(N2CCc3ccccc3CC2)nc(-c2ccccn2)n1` [GSK-J4] + C=CC(=O)N1CCN(c2nc(=O)n(-c3c(C)ccnc3C(C)C)c3nc(-c4c(O)cccc4F)c(F)cc23)[C@@H](C)C1 [sotorasib] are -0.52 and -0.59.
The corresponding values for `CC(C)c1cc(-c2n[nH]c(=O)n2-c2ccc3c(ccn3C)c2)c(O)cc1O` [Ganetespib] + C=CC(=O)N1CCN(c2nc(=O)n(-c3c(C)ccnc3C(C)C)c3nc(-c4c(O)cccc4F)c(F)cc23)[C@@H](C)C1 [sotorasib] are 7.55 and -1.8.
The corresponding values for `Nc1ccn([C@@H]2O[C@H](CO)[C@@H](O)C2(F)F)c(=O)n1` [Gemcitabine] + C=CC(=O)N1CCN(c2nc(=O)n(-c3c(C)ccnc3C(C)C)c3nc(-c4c(O)cccc4F)c(F)cc23)[C@@H](C)C1 [sotorasib] are 1.12 and 3.14.
As to `COc1ncc(-c2nc3c(n2C(C)C)[C@H](c2ccc(Cl)cc2)N(c2cc(Cl)cn(C)c2=O)C3=O)c(OC)n1` [HDM-201] + C=CC(=O)N1CCN(c2nc(=O)n(-c3c(C)ccnc3C(C)C)c3nc(-c4c(O)cccc4F)c(F)cc23)[C@@H](C)C1 [sotorasib], the “combination cScore with sotorasib” value is 7.32 in the assay on SW837 and 1.73 in the assay with NCI-H2122.
Regarding `CC(=O)[C@]1(O)Cc2c(O)c3c(c(O)c2[C@@H](O[C@H]2C[C@H](N)[C@H](O)[C@H](C)O2)C1)C(=O)c1ccccc1C3=O` [Idarubicin] + C=CC(=O)N1CCN(c2nc(=O)n(-c3c(C)ccnc3C(C)C)c3nc(-c4c(O)cccc4F)c(F)cc23)[C@@H](C)C1 [sotorasib], the “combination cScore with sotorasib” value in the assay with SW837 is 5.83; in the assay on NCI-H2122, 8.08.
The corresponding values for `Cc1ccc(NC(=O)c2ccc(CN3CCN(C)CC3)cc2)cc1Nc1nccc(-c2cccnc2)n1` [Imatinib] + C=CC(=O)N1CCN(c2nc(=O)n(-c3c(C)ccnc3C(C)C)c3nc(-c4c(O)cccc4F)c(F)cc23)[C@@H](C)C1 [sotorasib] are 2.47 and -1.79.
The corresponding values for `CC(C)NC[C@@H](C(=O)N1CCN(c2ncnc3c2[C@H](C)C[C@H]3O)CC1)c1ccc(Cl)cc1` [Ipatasertib] + C=CC(=O)N1CCN(c2nc(=O)n(-c3c(C)ccnc3C(C)C)c3nc(-c4c(O)cccc4F)c(F)cc23)[C@@H](C)C1 [sotorasib] are 11.4 and 12.3.
